Patent publication US20080221074A1, “Drug Screen and Treatment Method” (priority 2006, published 2008)

Experiments:
[1] = metabolic stability in liver microsomes, species not stated; details: compared with androst-5-ene-3β,17β-diol
Description: The protocol was performed as follows. […] (2) Set up samples as follows. […] (4) The internal standard/acetonitrile solution.

[2] = tested on: carrageenan-λ induced pleurisy; test: carrageenan-λ induced lung (pleural cavity) inflammation; format: in vivo, CD1 male mice; details: for number of neutrophils relative to negative control group (set at 100%): exudate 4 h after
Text: Treatment of lung inflammation. Three compounds, 3β,16α-dihydroxy-17-oxoandrostane, 3α,16β,17β-trihydroxyandrostane and 3α,16α,17α-trihydroxyandrostane were used to treat inflammation in mice essentially as described (D. Auci et al., Ann. New York Acad. Sci. 1051:730-742 2005). Five to 8 week old CD1 male mice (Charles River, Calco, Italy) were used for the study. The animals were housed in a controlled environment and provided with standard rodent chow and water. Animal care was in compliance with applicable regulations on protection of animals. Mice were allocated into one of the following groups: (1) mice treated with 2% carrageenan-k in saline (carrageenan-λ treated control group), (2) mice treated with 0.1 mg, 0.01 mg or 0.001 mg 3β,16α-dihydroxy-17-oxoandrostane by subcutaneous (s.c.) injection 24 h and 1 h before carrageenan-λ administration, (3) mice treated with 0.1 mg, 0.01 mg or 0.001 mg of 3α,16α,17α-trihydroxyandrostane by s.c. injection 24 and 1 h before carrageenan; (4) mice treated with 0.1 mg, 0.01 mg or 0.001 mg […],16β,17β-trihydroxyandrostane by s.c. injection 24 h and 1 h before carrageenan-λ administration; (5) mice treated with vehicle (0.1% carboxymethylcellulose, 0.9% saline, 2% tween 80, 0.05% phenol) s.c. 24 h and 1 h before carrageenan-λ administration; (6) mice treated with rabbit anti-mouse polyclonal anti-TNF-α antibody (200 μg) given as an intraperitoneal bolus 24 h and 1 h before carrageenan-λ administration (positive control group); and (7) sham-operated mice that were not treated with carrageenan-λ. Each group consisted of 10 mice. All treatments were given in a final volume of 100 μL. Lung (pleural cavity) inflammation was induced as follows. The mice were anaesthetised with isoflurane and a skin incision was made at the level of the left sixth intercostal space. The underlying muscle was dissected and either 0.1 mL saline (control) or 0.1 mL saline containing 2% λ-carrageenan was injected into the pleural cavity. The carrageenan-λ is a potent inducer of inflammation, which is manifested in this protocol by accumulation of fluid and neutrophils in the pleural cavity. The incision was closed with a suture and the animals were allowed to recover.
At 4 h after the injection of carrageenan-λ, the animals were euthanized by exposure to CO2. The chest was carefully opened and the pleural cavity rinsed with 1 mL of saline solution containing heparin (5 U/mL) and indomethacin (10 μg/mL). The exudate and washing solution were removed by aspiration and the total volume measured. Any exudate contaminated with blood was discarded. The amount of exudate was calculated by subtracting the injected 1 mL volume from the total pleural cavity volume that was recovered. The neutrophils in the exudate were suspended in phosphate-buffer saline and counted with an optical microscope in a Burker's chamber after Trypan Blue staining. The results were analysed by one-way ANOVA followed by a Bonferroni post-hoc test for multiple comparisons. A p-value less than 0.05 was considered significant. For statistical analysis each group was compared to the control group of mice that were challenged with carrageenan-k and received no other treatment.
The table below describes the number of neutrophils from the treated animal groups relative to untreated control animals that were exposed to carrageenan-λ, but not treated with anything else (negative control group). The neutrophil number for the negative control group was set at 100% and other groups were compared to this.

[3] = tested on: NF-κB; test: inhibition of NF-κB activation in NF-κB-bla THP-1 cells after LPS stimulation; format: cell-based, human; details: Homo sapiens, THP-1
Text: Inhibition of NF-κB in vitro. […] Activation of NF-κB increases expression of a number of genes that mediate inflammation. This protocol used human THP-1 cells, which are human mononuclear blood cells with a monocyte phenotype. The cell line, referred to as NF-κB-bla THP-1, contained a β-lactamase reporter gene under the control of the NF-kB response element (Invitrogen, CellSensor™, product No. K1176). In this cell line, the β-lactamase reporter gene is stably integrated in the THP-1 cells. This cell line was used to detect agonists or antagonists of the NF-κB signaling pathway. These NF-κB-bla THP-1 cells respond to the presence of tumor necrosis factor alpha (TNFα) or bacterial lipopolysaccharide (LPS) by increased expression of the β-lactamase reporter gene. The level of β-lactamase enzyme activity was measured by fluorescence resonance energy transfer ratiometric detection. TNFα and LPS are both potent inflammation-inducing agents that activate NF-κB in THP1 cells. In this assay, compounds that decrease NF-κB activity, and thus β-lactamase, in the presence of TNFα or LPS are exerting an anti-inflammation activity.
The NF-κB-bla THP-1 cells were maintained by passaging or feeding as needed. […] The cells were plated at 20,000 cells/well in a 384-well Black-wall, clear bottom assay plates (Costar#3712-TC low fluorescence background plates) approximately 24 hours before adding either TNFα at 10 ng/mL or LPS at 0.2 ng/mL to activate NF-κB.
The assays were usually conducted 2-4 times for each compound and the values shown below are averages for each compound.

[4] = tested on: ionizing radiation exposure; test: survival after lethal total body irradiation (10 Gy); format: in vivo, female B6D2F1 mice; details: 0.6 mg s.c. daily for 3 days
Description: Treatment of ionizing radiation exposure. The effect of selected F1Cs on survival of lethally-irradiated female B6D2F1 mice were compared to control animals treated with vehicle alone. […] For Group 4, test article was administered as a 50 μL volume, by intramuscular injection for three consecutive days. The formulation was a a suspension containing 0.1% w/v carboxymethyl-cellulose, 0.9% w/v sodium chloride and 0.05% v/v phenol. The formulations were agitated to uniformly resuspend the Fl C before syringing, and injected into animals within a few minutes of drawing into the syringe to prevent settling in the syringe.
The groups of animals were treated as follows. […] The number of surviving animals is shown for day 6, 7, 12 and 21.

[5] = tested on: human T lymphocytes (PBMC); test: human mixed lymphocyte reaction (MLR); format: cell-based; details: 300 nM
Text: Human mixed lymphocyte reaction (MLR). The capacity of 3β,16α-dihydroxy-17-oxoandrostane, 3β,17β-dihydroxy-16-oxoandrostane, 17α-ethynylandrost-5-ene-3β,7β,17β-triol, and 17β-aminoandrost-5-ene-3β-ol to affect antigen specific stimulation in which human T lymphocytes respond to a specific foreign antigen (major histocompatibility complex).
Blood samples were obtained from 3 (2 males, […]) fasting, healthy human volunteers of 23-31 years old. […] The subjects were bled between 9 and 10 AM to limit possible fluctuations in the circulating levels of hormones or cytokines that could have influenced the in vitro responses of their lymphocytes. Peripheral blood mononuclear cells (PBMC) were isolated by centrifugation on Ficoll-Hypaque (density 1.077, Biochrom AG, Berlin, Germany) gradients and resuspended in culture medium (RPMI 1640 supplemented with 2 mM L-glutamine, penicillin (100 U/mL) and streptomycin ([…]) (Invitrogen s.rl., Milan, Italy). Autologous (responder) inactivated plasma was used at 10%. Five hundred thousand responder PBMC (PBMCr) and 500,000 allogeneic irradiated (30 Gy) stimulator PBMC (PBMCs) were mixed at a ratio of 1:1 in 200 μL medium and cultured for 6 days in flat bottom 96 well plates (Nunc, Roskilde, Denmark) at a concentration of 300 nM or 30 nM for each of the 4 compounds. The compounds were dissolved in ethanol and then diluted to the desired concentration with culture medium leading to a final solution containing 0.01% of ethanol. This vehicle was used as control. Controls also included PBMCr and PBMCs cultured separately. During the last 8 hours of the culture period the PBMC were pulsed with […] [^3H] thymidine (Amersham, Milan, Italy). The cells were then harvested and radioactivity incorporation measured with a beta cell counter. The mean cpm of quadruplicate wells was calculated. Proliferation of T cells was expressed as a stimulation index: SI=cpm (PMBCs xPBMCr)/cpm (PBMCr)+cpm (PBMCs). Statistical analysis was performed using the Student's t test. The cpm obtained from quadruplicate of each test compound were compared to proliferative responses obtained in control PBMCr and PBMCs cultured in the presence of the vehicle. Differences were considered significant at p<0.05.

[6] = tested on: EAE; test: experimental allergic encephalomyelitis (EAE), PLP 139-151; format: in vivo, female SJL/J mice; details: 5 mg/kg daily oral gavage; through day 26
Text: Treatment of autoimmune neurodegeneration. Three compounds, 17β-aminoandrost-5-ene-3β-ol, 17β-dimethylaminoandrost-5-ene-3β-ol and 17β-methylaminoandrost-5-ene-3β-ol were characterized for their capacity to ameliorate experimental allergic encephalomyelitis (EAE) in mice. This demyelinating condition is extensively used as a model for multiple sclerosis in humans and for testing of new therapies for treating multiple sclerosis, e.g., B. F. Bebo Jr. et al., J. Neurosci. Res. 52:420-426 1998; R. R. Voskuhl et al., Neuroscientist, 7:258-270 2001; H. Offner et al., J. Neuroimmunol., 130:128-139 2002.
In this protocol, the compounds were administered to female SJL/J mice by oral gavage at the onset of disease symptoms. An antigen was used to initiate the EAE condition in the mice. […] Immunization with this peptide antigen initiates an autoimmune Thl mediated demyelinating disease of the central nervous system. The antigen was prepared by solid phase synthesis and purified by high-performance liquid chromatography. […] The immunization protocol was subcutaneous injection over four sites on the hind flank on day 0. After immunization. the mice were assessed daily for clinical signs of EAE using the following scale: 0=no clinical signs or symptoms; 1=limp tail; 2=mild hind limb weakness and limp tail; 3=moderate hind limb weakness and limp tail or mild ataxia; 4=severe hind limb weakness and mild forearm weakness with moderate ataxia; 5=paraplegia with no more than moderate forelimb weakness; 6=paraplegia with severe forelimb weakness or severe ataxia or moribund condition.
Mice in the vehicle control group began to show observable symptoms of EAE at about 10-11 days after immunization with the PLP antigen, which is typical for the EAE disease model. The animals were dosed daily with 17β-aminoandrost-5-ene-3β-ol, 17β-dimethylaminoandrost-5-ene-3β-ol or 17β-methylaminoandrost-5-ene-3β-ol by oral gavage beginning at day 1, which was 1 day after immunization.

SMILES | rate of metabolism by microsomes [1] | number of neutrophils relative to negative control group (set at 100%) ([2]; 0.01 mg s.c. 24 h and 1 h before carrageenan-λ) [%] | number of neutrophils relative to negative control group (set at 100%) ([2]; 0.1 mg s.c. 24 h and 1 h before carrageenan-λ) [%] | IC50 [3] [µM] | number of surviving animals (groups of 12) ([4]; day 6) | number of surviving animals (groups of 12) ([4]; day 7) | number of surviving animals (groups of 12) ([4]; day 12) | number of surviving animals (groups of 12) ([4]; day 21) | anti-inflammation activity compared to vehicle controls ([2]; oral gavage, 1 mg and 0.1 mg (17α-ethynyl triol), 40 mg/kg (17β-amino compound)) | immune suppression (inhibition of the MLR) [5] | clinical severity of EAE symptoms [6]
C[C@]12CC[C@H]3[C@@H](CCC4C[C@H](O)CC[C@@]43C)[C@@H]1C[C@@H](O)[C@H]2O (stereo partly drawn) [3α,16α,17α-trihydroxyandrostane] | metabolized by microsomes at a rate similar to the androst-5-ene-3β,17β-diol reference compound | 45 | 30 | > 10 |  |  |  |  |  |  | 
C[C@]12CC[C@H]3[C@@H](CC=C4C[C@@H](O)CC[C@@]43C)[C@@H]1CC[C@@H]2N [17β-aminoandrost-5-ene-3β-ol] |  |  |  |  | 12 | 12 | 12 | 11 | statistically significant anti-inflammation activity | moderately immune suppressive | reduced the clinical severity
C[C@]12CC[C@H]3[C@@H](CC=C4C[C@@H](O)CC[C@@]43C)[C@@H]1C[C@@H](O)[C@@H]2O [androst-5-ene-3β,16α,17β-triol] | metabolized by microsomes at a rate similar to the androst-5-ene-3β,17β-diol reference compound |  |  |  |  |  |  |  |  |  | 
